Source: patent US20260083789A1, “FORMULATION FOR STIMULATING HAIR GROWTH AND IMPROVING QUALITY AND METHOD OF PREPARATION OF THE SAME” (ARJUNA NATURAL PRIVATE LIMITED, priority 2022, published 2026)

Key:
[1] = system: Human dermal fibroblasts (HDFa) cells; assay: MTT assay, cell viability / proliferation; format: cell-based; settings: HDFs
Method: Human dermal fibroblasts (HDFa) cells were maintained in DMEM high glucose media (Himedia) with 10% FBS and 40 units/ml of penicillin & 40 μg/mL of streptomycin (Thermo Fisher) in 37° C. humidified chamber with 5% CO2. Cells were passaged after every 2-3 days using trypsin-EDTA.
Cells were trypsinized, centrifuged and resuspended in culture medium. Cells and then counted by trypan blue method using haemocytometer and plated at 5000 cells per 50 μl into wells of a 96 well microtiter plate. The cells were then incubated overnight under conditions appropriate for the cell line for adherence. […] 10 μl MTT reagent was then added to each well, after respective time period followed by incubation for 4 hours. After 4 hours, when the purple precipitate was clearly visible under the microscope, supernatant was removed carefully by pipette and 100 μl of solubilization solution (DMSO) was added to all wells. The plate was shaken softly for 20 minutes in the dark at room temperature. Then, the absorbance was taken of each well, including the blanks, at 570 nm with reference wavelength at 630 nm in a microtiter plate reader. The average values were determined from triplicate readings and subtracted the average value for the blank.

HDFs = assay: In vitro cell based scratch assay (wound healing); parameters: species or system human; settings: negative control 89.798 %
Method: In vitro cell based scratch assay is one of the most apt and economic procedures for preliminary examination of wound healing potential of any medicinal extract. […] Cell migration was monitored at 0 hour, 24 hours and 48 hours and wound closure distance was calculated by Image J software.

## Nc1cc(N2CCCCC2)nc(N)[n+]1[O-] [Minoxidil, 2,4-diamino-6 piperidino-pyrimidine-3-oxide]
[1]
  time at which cell proliferation peaked: 72 h
  time to show efficacy / increase the rate of cell proliferation: 48 h
[1]; in contrast to the extract
  cell proliferation in relation to concentration: increased cell proliferation at lower concentrations
HDFs
  closure of the gap created by the scratch: 89.358%
